Measurements from patent US9107889B2, “Compositions comprising an NO donor and a dithiolane and their use for improvement of sexual function” (Encrypta GmbH, priority 2005, dated 2015).

What was measured:
[1] = tested on: erectile dysfunction (ED); test: Clinical case reports: erectile function, International Index of Erectile Function (IIEF) score; format: in vivo, human
From the text: ED is clinically assessed by the application of the International Index of Erectile Function (IIEF Scale). The scale consists of 5 items related to erectile function scored from never (1 points) to always (5 points). 21-25 points translate to the absence of ED, 16-20 points relate to a mild ED, 11-15 points relate to a moderate ED and 5-10 points translate to a severe ED.
(§1) A person suffered since 3 months from worsening of erection (reduction of penile tension) and of a slight reduction of libido. Their IIEF count at the examination was 9. All biochemical parameters and hormones were within the normal range. The Doppler sonography of the penile vessels was normal. A challenge test with Silfenadil was positive, thereby excluding an organic pathology of the erectile dysfunction (ED). […] Psychogenic ED was diagnosed after examination. […] Arginine (5 g) and 600 mg α-lipoic acid were taken orally 30 minutes prior intercourse. After therapy, erection normalized. The IIEF score improved from 9 to 21 points.
A person complained since a week about insufficient erection. The person started sexual life with regularly intercourse twice a week. 3 months ago, they changed the sexual partner. At the 1st intercourse with the new partner, they experienced overexcitement. Since that time erection worsened, with an IIEF score of 8 points. The biochemical and hormonal values were within the normal range. The diagnosis was psychogenic ED and failure expectation syndrome. […] After change to 4 g arginine and 300 mg α-lipoic acid, the erection improved. The IIEF score improved from 8 to 12 points. In the meantime, the patient changed to chronic intake of 1 g arginine+100 mg α-lipoic acid daily. Occasionally, they take on demand prior intercourse additional 4 g arginine+300 mg α-lipoic acid.
(§2) A patient complained about worsening of erection since 7 years. Sexual intercourse was only possible in selected position. In addition, they suffered from premature ejaculation. Their libido remained intact. The IEFF score at diagnosis was 11. The diagnosis was physical ED and premature ejaculation. 600 mg α-lipoic acid was given as single dose and arginine was given in 4 single doses over the day of 2 g. The erection improved and the intercourse was prolonged from 1-2 minutes to 7 minutes. The IEFF score changed from 11 to 15 points. The 4 single doses have been changed to a single dose of 10 g arginine, taken together with the α-lipoic acid.
A patient (company manager with associated psychological stress) complained about reduced erection and reduced libido since the last 13 years. The morning reactions retained. […] The diagnosis was psychogenic ED and manager syndrome. […] The IIEF score improved from 9 to 24 points. For chronic intake, the daily dose of arginine has been reduced to 2 g, with no change of the α-lipoic acid intake.
(§3) A patient complained about worsening of erection and premature ejaculation. After administration of Silfenadil and Verdenafil, the erection improved; however, the premature ejaculations remained. The diagnosis was psychogenic ED and premature ejaculation. […] However, 200 mg thioctic acid together with 10 g arginine led to an improvement of the IIEF from 8 to 20 points. The duration of intercourse was extended from 1 to 4 minutes.

[2] = tested on: erectile dysfunction (ED); test: Challenge test with Silfenadil; format: in vivo, human; details: Case 1; positive excludes organic pathology of ED
Experimental: as §1

[3] = Adverse events in the clinical cases; format: in vivo, human; details: Case 1
Experimental: as §1
None of the cases reported adverse events due to the intake of the combination partners. Attributes of cardiovascular dysfunction were not observed. Acutely, oral liquid presentations were applied, chronically both liquid and solid presentations.

[4] = tested on: premature ejaculation; test: Clinical case reports: duration of intercourse / premature ejaculation; format: in vivo, human; details: Case 5; Silfenadil and Verdenafil
Experimental: as §2, §3
A person was able to perform intercourse only after nasal intake of isoamylnitrite since 5 years. However, intercourse was still unsatisfactory due to unpredictable erections and premature ejaculations. The diagnosis was physical erectile dysfunction and premature ejaculation. […]

[5] = tested on: loss of libido in women; test: Clinical case report: female sexual function (libido, orgasm, IFSF questionnaire); format: in vivo, human; details: Case 6; arginine alone 3 g daily increased to 10 g
From the text: Female sexual function can be assessed by the Index of Female Sexual Function (IFSF), a 9-item self-assessment questionnaire. The IFSF is much more comprehensive in respect of sexual function assessment compared to the IIEF. Parameters to be assessed are discomfort during intercourse, degree of vaginal dryness, number of attempts to intercourse, rate and degree of sexual desire, level of satisfaction with sex life and relationship, degree of clitoral sensation and quality of orgasm.
A person experienced loss of libido after they have born their first child. Intercourse was often painful due to diminished […]. […] Since two years, they regularly attend with their spouse marriage counseling. […] The dose was increased weekly by 100 mg. […] The ISFS questionnaire improved (10 points). They reported that their partnership has improved. Marriage counseling has been aborted.

[6] = cited from earlier work

## CCCc1nn(C)c2c(=O)[nH]c(-c3cc(S(=O)(=O)N4CCN(C)CC4)ccc3OCC)nc12 [Silfenadil]
[1]; Case 5, psychogenic ED and premature ejaculation, Silfenadil and Verdenafil
  erection after administration: improved
[2]
  challenge test result: positive
[3]
  side effect evoked by administration: severe redness of face
[4]
  premature ejaculations after administration: remained

## N=C(N)NCCC[C@H](N)C(=O)O [arginine]
[1]; Case 2, psychogenic ED, baseline IIEF 8, oral intake of 4 g arginine alone
  change of IIEF score: did not change
[1]; Case 5, 10 g arginine on top of basic treatment (Silfenadil, Verdenafil)
  effect on ED / premature ejaculation: without any effect
[5]
  effect on loss of libido / absent orgasm: did not improve the situation

## O=C(O)CCCCC1CCSS1 (stereo not drawn) [α-lipoic acid]
[1]; Case 1, psychogenic ED, baseline IIEF 9, oral intake of 600 mg α-lipoic acid alone
  change of IIEF score: did not change
[1]; Case 4, psychogenic ED, single dose 200 mg α-lipoic acid alone
  effect on erection: without any effect
[1]; Case 4, α-lipoic acid alone increased to 600 mg
  effect on erection: did improve the situation
[6]
  pKa: 5.3
